The results in this text go back to patent US20220040255A1, “CHEMOTHERAPEUTIC REMODELING OF THE GUT MICROBIOME” (THE SCRIPPS RESEARCH INSTITUTE, priority 2018, published 2022).

The test system of experiment [1] is gut microbiota from cecum of LDLr−/− mice. Description: in vitro en masse screening assay (cecum culture, 16S rRNA sequencing). The experiment is classed as cell-based. The settings on record: ranking in remodeling WD gut microbiota toward CHD microbiota composition. As to the method:
We have established the following in vitro compound screening protocol for en masse gut microbiome remodeling. We obtain fresh gut microbiome content from LDLr^-/- mice conditioned for at least two weeks on WD by surgically removing cecum under anaerobic conditions. These samples are then mixed with growth media, distributed in 96-well plates, and incubated overnight in the presence of the test peptides. The activity and selectivity of each peptide for remodeling the gut microbiota community was assessed en masse by 16S rRNA sequencing of each well. A number of challenges had to be addressed in developing this protocol, including inoculum handling, choice of growth media, assay duration, etc. Our current assay culture condition maintains 50 bacterial genera (overnight culture), which is fairly representative of the 67 genera found in the uncultured community (Table 2). We used a distance scoring algorithm for a more refined compound selection, in which peptides that remodel the microbiota community most completely from the dysfunctional state (WD fed) toward the functional state (CHD fed) are scored higher. Briefly, we first eliminate cyclic D,L-α-peptides that have broad-spectrum antibacterial activity (inhibit >95% of growth of ≥25% of species in the community). The remaining compounds are then ranked based on how well they suppressed the bacterial species that grew in abundance in WD-fed mice. […] Among these, 40 genera decreased while 14 genera increased in abundance by WD feeding. Within the increased 11 genera, there were 19 bacterial species that were also present in our in vitro culture system. Accordingly, compounds were scored highly when they reduced the levels of 19 bacterial species (lowest summed differences in relative abundance) that were increased by WD feeding to be more similar to their levels in a CHD-fed microbiome (see Table 3 for peptide ranking). Based on these analyses, we chose two peptides for further in vivo validation and efficacy studies: the cationic peptide 1, […] NO:1), and the neutral peptide 11, […] NO:11), which ranked high within their respective peptide clusters. In vitro cecum culture and peptide screening. We screened a number of parameters to optimize the in vitro culture condition for maximal bacterial diversity in liquid culture, including a survey of several different growth media, dilution factors for plate inoculation, and incubation times; further details of the development of this in vitro screen will be reported elsewhere. Female LDLr^-/- mice (8-10 weeks of age) were fed a WD for two weeks. Cecum harvest and all assay steps were performed under anaerobic conditions (Coy Laboratory anaerobic chamber). Cecum contents from three mice were pooled for the assay to provide enough material and to minimize the individual variation in gut microbiome. Cecum contents were suspended in PBS (1.5 ml PBS per 100 mg of cecum content). The mixture was vortexed for 5 min and the supernatant was transferred to a new tube. The cecum content mixture was further diluted in Chopped Meat Carbohydrate Broth (BD 297307) for in vitro peptide screening. […] The concentration of peptide stock in DMSO was calculated based on A280 measurement. For each peptide, an initial 20 mM stock was made in DMSO and diluted to 1 mM in 10% sucrose. From that, a 0.64 mM peptide dilution in 10% sucrose was prepared, and each peptide was further diluted into the assay for peptide screening at two concentrations (64 μM and 16 μM). Bacterial DNA was harvested after 24-hour peptide treatment and isolated with Microbial DNA isolation kit (Mo Bio) following the manufacturer's instructions. 16S rRNA gene sequencing and processing. PCR amplicons of the V3-V4 16S rRNA region were amplified and sequenced using an Illumina MiSeq platform. […]

In the next experiment the test system is atherosclerotic lesions. The experiment in a line: analysis of atherosclerosis (whole aorta en face, aortic sinus). The experiment is classed as in vivo, LDLr−/− mice. The settings on record: completion of the 10-week study. As to the method:
Analysis of atherosclerosis. Atherosclerotic lesion severity was assessed in the aortae as previously described. Briefly, at euthanasia, animals were perfused with PBS, followed by 4% formaldehyde (10% UltraPure EM Grade from Polysciences diluted in PBS, pH 7.2). For en face analysis, the entire mouse aorta was dissected from the proximal ascending aorta to the bifurcation of the iliac artery by using a dissecting microscope. Adventitial fat was removed, and the aorta was opened longitudinally, pinned flat onto black dissecting wax, stained with Sudan IV, and photographed at a fixed magnification. The photographs were digitized, and total aortic areas and lesion areas were calculated by using Adobe Photoshop and NIH Image J software. The results were reported as a percentage of the total aortic area that contained lesions.
As a second assessment of atherosclerosis, lesions of the aortic root (heart sinus) were analyzed^55. Utilizing stereological principles, lesion volume was estimated across a fixed distance of the aortic sinus. After 10 min fixation in 4% paraformaldehyde, hearts were cut at an angle perpendicular to the atria of the heart and embedded in OCT (Tissue-Tek). Frozen hearts were sectioned on a Leica cryostat, with 10-μm sections collected from the beginning of the aortic sinus (defined as when a valve leaflet became visible) to 500 μm below the beginning of the sinus. […] Sections were collected in duplicate at 50-μm intervals. Sections were stained with oil red O, counterstained with Gill hematoxylin 1 (Fischer Scientific International), photographed, and digitized for lesion analysis. Scoring of valve lesion areas was done for each of the 3 valve cusps individually. Lesion areas found only within the valve cusp were measured. […] Lesion volume was calculated from an integration of the measured cross-sectional areas. Prediction of the coefficient of error (CE) in approximating lesion volume was computed using the Cavalieri estimator derived from a covariogram analysis of an ordered set of estimates of cross-sectional areas. This yielded CE values of less than 10% that were acceptable for a stereological computation of lesion volume.

Where a SMILES comes first, the peptide text is derived from it. [ ]: non-standard residue; d: D form.

Take `CC(C)C[C@@H]1NC(=O)[C@@H](Cc2c[nH]c3ccccc23)NC(=O)[C@H](CCCCN)NC(=O)[C@@H](Cc2c[nH]cn2)NC(=O)[C@H](CO)NC(=O)[C@@H](Cc2c[nH]cn2)NC(=O)[C@H](CCCCN)NC(=O)[C@@H](Cc2c[nH]c3ccccc23)NC1=O` [c[wLwKhShK]] (cyclo([dW]L[dW]K[dH]S[dH]K)): the “ranked distance to chow” value in experiment [1] was 2. Moreover, in the experiment on atherosclerotic lesions, the “reduction in atherosclerotic lesions, whole aorta lesion area” value is 37% and the “reduction of aortic sinus lesion volume” value worked out at 44%.

`CC(C)C[C@@H]1NC(=O)[C@@H](Cc2c[nH]c3ccccc23)NC(=O)[C@H](CCCNC(=N)N)NC(=O)[C@@H](CCC(=O)O)NC(=O)[C@H](CCC(N)=O)NC(=O)[C@@H](CCC(=O)O)NC(=O)[C@H](CCCNC(=N)N)NC(=O)[C@@H](Cc2c[nH]c3ccccc23)NC1=O` [c[wLwReQeR]] (cyclo([dW]L[dW]R[dE]Q[dE]R)): the “ranked distance to chow” value in experiment [1] is recorded as 14. In the experiment with atherosclerotic lesions, the “reduction in atherosclerotic lesions, whole aorta lesion area” value is listed as 48% and the “reduction of aortic sinus lesion volume” value is reported as 37%.
